Source: patent US9346776B2, “Fused heterocyclic compound” (Takeda Pharmaceutical Company Limited, priority 2014, dated 2016)

Legend:
[1] = system: diet-induced obesity (DIO) mouse; test: Test on antiobesity action using DIO mouse; format: in vivo; conditions: mean ± SD; for Body weight(g) At start of administration: baseline
Method: Test Example 3 Test on antiobesity action using DIO mouse A 0.5% methylcellulose suspension (test compound administered group, 5 or 6 mice per group) containing each test compound (20 or 60 mg/kg) or a 0.5% methylcellulose suspension (test compound non-administered group (vehicle), 6 mice per group) was orally administered to each diet-induced obesity (DIO) mouse (D12079B diet, male, 46 weeks old) once a day for 4 weeks. The means of body weights and standard deviations at the start of administration and after 4-week continuous administration are shown below.

[2] = molecular target: T1, Human recombinant enteropeptidase (Homo sapiens, UniProt P98073); test: Human enteropeptidase inhibitory activity; format: biochemical; conditions: 3.3 uM compound; fluorescence 2 hours after start of reaction; read-out: Inhibition rate at 3.3 uM (%)
T1 construct: purchased ITSI-Biosciences, LLC #REN-260
T1 sequence (P98073 whole entry): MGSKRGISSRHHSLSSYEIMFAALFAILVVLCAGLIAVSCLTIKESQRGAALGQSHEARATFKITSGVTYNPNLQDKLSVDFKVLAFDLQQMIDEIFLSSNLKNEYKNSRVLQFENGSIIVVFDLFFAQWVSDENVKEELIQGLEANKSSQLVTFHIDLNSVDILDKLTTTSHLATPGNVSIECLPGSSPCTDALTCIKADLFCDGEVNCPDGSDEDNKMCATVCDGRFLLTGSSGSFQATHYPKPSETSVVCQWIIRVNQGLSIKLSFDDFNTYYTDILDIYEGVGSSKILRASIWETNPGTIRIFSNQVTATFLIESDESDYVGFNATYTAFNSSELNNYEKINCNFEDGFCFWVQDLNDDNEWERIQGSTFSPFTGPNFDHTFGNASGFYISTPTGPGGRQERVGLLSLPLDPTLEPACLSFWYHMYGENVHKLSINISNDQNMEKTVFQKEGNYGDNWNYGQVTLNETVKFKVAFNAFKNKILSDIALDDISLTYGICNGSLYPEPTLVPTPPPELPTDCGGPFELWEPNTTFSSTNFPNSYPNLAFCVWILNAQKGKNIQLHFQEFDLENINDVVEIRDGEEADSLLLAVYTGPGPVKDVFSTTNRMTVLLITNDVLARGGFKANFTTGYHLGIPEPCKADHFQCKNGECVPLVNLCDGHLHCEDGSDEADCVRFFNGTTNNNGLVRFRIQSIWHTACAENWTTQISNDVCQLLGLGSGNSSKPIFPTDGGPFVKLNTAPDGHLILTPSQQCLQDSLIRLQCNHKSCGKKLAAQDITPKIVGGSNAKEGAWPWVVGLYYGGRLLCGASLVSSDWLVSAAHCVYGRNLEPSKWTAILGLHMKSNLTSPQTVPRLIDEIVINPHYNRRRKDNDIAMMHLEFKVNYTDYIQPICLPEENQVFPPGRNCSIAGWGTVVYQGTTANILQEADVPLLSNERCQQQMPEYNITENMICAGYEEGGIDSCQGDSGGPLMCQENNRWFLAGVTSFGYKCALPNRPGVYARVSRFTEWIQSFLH
Method: Test Example 1 Human enteropeptidase inhibitory activity Human recombinant enteropeptidase (#REN-260, ITSI-Biosciences, LLC) was diluted with an assay buffer (50 mM Tricine (pH 8.0), 0.01 (w/v) % Tween 20, 10 mM CaCl2) to prepare a 24 mU/mL enzyme solution. Subsequently, 5FAM-Abu-Gly-Asp-Asp-Asp-Lys-Ile-Val-Gly-Gly-Lys(CPQ2)-Lys-Lys-NH2 (purity: 97.2%, CPC Scientific, Inc.) produced according to a synthesis method known per se was diluted with an assay buffer to prepare a 2.1 uM (“u” represents “micro”) substrate solution. Each test compound was dissolved in DMSO to prepare a 1 mM solution, which was then diluted 100-fold with an assay buffer to prepare a compound solution. The compound solution (5 uL/well) and the substrate solution (5 uL/well) were added to a 384-well black plate (#784076, Greiner Bio-One) and mixed. Then, the enzyme solution (5 uL/well) was added to the plate and mixed to start reaction. The fluorescence intensity was measured at an excitation wavelength of 485 nm and a fluorescence wavelength of 535 nm using a fluorescence plate reader EnVision (PerkinElmer Inc.). Also, the same reaction as above was performed except that the test compound was not added (test compound non-supplemented group). In addition, the same reaction as above was performed except that neither the test compound nor the enzyme was added (control group). The inhibition rate was calculated from the fluorescence intensity 2 hours after the start of the reaction according to the following equation: Inhibition rate (%)=(1−(Fluorescence intensity of the test compound supplemented group−Fluorescence intensity of the control group)/(Fluorescence intensity of the test compound non-supplemented group−Fluorescence intensity of the control group))×100

[3] = system: high fat diet-fed (HFD-fed) mouse; test: Test on elevation of protein concentration in feces using HFD-fed mouse; format: in vivo; conditions: 10 mg/kg oral, feces recovered at day 1, mean ± SD, 5 mice
Method: Test Example 2 Test on elevation of protein concentration in feces using HFD-fed mouse A 0.5% methylcellulose suspension (test compound administered group, 5 mice per group) containing each test compound (10 mg/kg) or a 0.5% methylcellulose suspension (test compound non-administered group (vehicle), 5 mice per group) was orally administered to each high fat diet-fed (HFD-fed) mouse (D12079B diet, male, 18 weeks old), and the whole feces were recovered at day 1 of administration. The dry feces were dissolved in a 0.5 N aqueous sodium hydroxide solution. After centrifugation at 12,000 rpm, a protein concentration was quantified (Lowry method) using the supernatant to calculate a protein concentration (mg/g feces) in 1 g of feces. The mean and standard deviation of each group are shown below.

Male ob/ob mice = test: Hypoglycemic action on diabetes mellitus animal model (2-week continuous administration); format: in vivo, mouse; conditions: feed containing 0.03% compound for 2 weeks, mean ± SD
From the text: Test Example 4 Hypoglycemic action on diabetes mellitus animal model (2-week continuous administration) Male ob/ob mice (6 weeks old) were used to prepare two groups each involving 5 individuals. One of the groups was fed as a control with feed free from a compound for 2 weeks, while the other group to receive compound treatment was fed with feed containing a compound at a concentration of 0.03% for 2 weeks. After 2 weeks, blood was collected from the tail vein of each mouse, and a diabetes mellitus-ameliorating action brought about by the compound treatment was evaluated. Blood glucose levels were measured using Hitachi automatic analyzer model 7180 (Hitachi, Ltd.), and glycated hemoglobin levels were measured using Tosoh automatic glycohemoglobin analyzer HLC-723G8 (Tosoh Corp.). The blood glucose and glycated hemoglobin levels of each group after the 2-week administration are indicated by mean±standard deviation in Table 6.

[4] = 20 mg/kg oral once a day for 4 weeks
[5] = 60 mg/kg oral once a day for 4 weeks

N=C(N)Nc1ccc(C(=O)Oc2ccc3c(c2)OC[C@H]3CC(=O)N[C@@H](CC(=O)O)C(=O)O)cc1 [Example 1, N-(((3S)-6-((4-Carbamimidamidobenzoyl)oxy)-2,3-dihydro-1-benzofuran-3-yl)acetyl)-L-aspartic acid]
Body weight(g) After 4-week continous administration [1, 4]: 43.8 ± 1.7 g
Body weight(g) At start of administration ([1]; 20 mg/kg oral once a day): 48.3 ± 2.0 g
Body weight(g) After 4-week continous administration [1, 5]: 41.7 ± 2.8 g
Body weight(g) At start of administration ([1]; 60 mg/kg oral once a day): 49.5 ± 2.2 g
inhibition at 3.3 µM [2]: 101%
Protein concentration in feces (mg/g feces) [3]: 177.6 ± 35.2 mg/g feces

N=C(N)Nc1ccc(C(=O)Oc2ccc3c(c2)OC[C@@H]3CC(=O)N[C@@H](CC(=O)O)C(=O)O)cc1 [Example 2, N-(((3R)-6-((4-Carbamimidamidobenzoyl)oxy)-2,3-dihydro-1-benzofuran-3-yl)acetyl)-L-aspartic acid]
Body weight(g) After 4-week continous administration [1, 4]: 46.0 ± 2.8 g
Body weight(g) At start of administration ([1]; 20 mg/kg oral once a day): 49.6 ± 2.6 g
Body weight(g) After 4-week continous administration [1, 5]: 44.4 ± 4.5 g
Body weight(g) At start of administration ([1]; 60 mg/kg oral once a day): 49.8 ± 2.8 g
inhibition at 3.3 µM [2]: 101%
Protein concentration in feces (mg/g feces) [3]: 149.8 ± 24.4 mg/g feces

Cc1cc(OC(=O)c2ccc(NC(=N)N)cc2)cc2c1C(CC(=O)N[C@@H](CC(=O)O)C(=O)O)CO2 (stereo partly drawn) [Example 3, N-((6-((4-Carbamimidamidobenzoyl)oxy)-4-methyl-2,3-dihydro-1-benzofuran-3-yl)acetyl)-L-aspartic acid]
inhibition at 3.3 µM [2]: 100%

N=C(N)Nc1ccc(C(=O)Oc2ccc3c(c2)OC[C@H]3CC(=O)N[C@H](CC(=O)O)C(=O)O)cc1 [Example 4, N-(((3S)-6-((4-carbamimidamidobenzoyl)oxy)-2,3-dihydro-1-benzofuran-3-yl)acetyl)-D-aspartic acid]
inhibition at 3.3 µM [2]: 100%

N=C(N)Nc1ccc(C(=O)Oc2ccc3c(c2)OC[C@@H]3CC(=O)N[C@H](CC(=O)O)C(=O)O)cc1 [Example 5, N-(((3R)-6-((4-carbamimidamidobenzoyl)oxy)-2,3-dihydro-1-benzofuran-3-yl)acetyl)-D-aspartic acid]
inhibition at 3.3 µM [2]: 101%

N=C(N)Nc1ccc(C(=O)Oc2ccc3c(c2)OC[C@@H]3CC(=O)N[C@@H](CCC(=O)O)C(=O)O)cc1 [Example 6, N-(((3R)-6-((4-carbamimidamidobenzoyl)oxy)-2,3-dihydro-1-benzofuran-3-yl)acetyl)-L-glutamic acid]
inhibition at 3.3 µM [2]: 101%

N=C(N)Nc1ccc(C(=O)Oc2ccc3c(c2)OC[C@H]3CC(=O)N[C@@H](CCC(=O)O)C(=O)O)cc1 [Example 7]
inhibition at 3.3 µM [2]: 101%

N=C(N)Nc1ccc(C(=O)Oc2ccc3c(c2)OC[C@@H]3CC(=O)N(CC(=O)O)CC(=O)O)cc1 [Example 8, 2,2′-((((3R)-6-((4-carbamimidamidobenzoyl)oxy)-2,3-dihydro-1-benzofuran-3-yl)acetyl)imino)diacetic acid]
inhibition at 3.3 µM [2]: 100%

N=C(N)Nc1ccc(C(=O)Oc2ccc3c(c2)OC[C@@H]3CC(=O)N(CCC(=O)O)CCC(=O)O)cc1 [Example 9, 3,3′-((((3R)-6-((4-carbamimidamidobenzoyl)oxy)-2,3-dihydro-1-benzofuran-3-yl)acetyl)imino)dipropanic acid]
inhibition at 3.3 µM [2]: 100%

N=C(N)Nc1ccc(C(=O)Oc2cc(F)c3c(c2)OCC3CC(=O)N[C@@H](CC(=O)O)C(=O)O)cc1 (stereo partly drawn) [Example 10, N-((6-((4-Carbamimidamidobenzoyl)oxy)-4-fluoro-2,3-dihydro-1-benzofuran-3-yl)acetyl)-L-aspartic acid]
inhibition at 3.3 µM [2]: 100%

Cc1c(OC(=O)c2ccc(NC(=N)N)cc2)ccc2c1OCC2CC(=O)N[C@@H](CC(=O)O)C(=O)O (stereo partly drawn) [Example 11, N-((6-((4-carbamimidamidobenzoyl)oxy)-7-methyl-2,3-dihydro-1-benzofuran-3-yl)acetyl)-L-aspartic acid]
inhibition at 3.3 µM [2]: 98%

N=C(N)Nc1ccc(C(=O)Oc2ccc3c(c2)OC[C@H]3CC(=O)N[C@@H](CC(=O)O)C(=O)O)cc1 [Example 12, N-(((3S)-6-((4-Carbamimidamidobenzoyl)oxy)-2,3-dihydro-1-benzofuran-3-yl)acetyl)-L-aspartic acid hydrate]
Blood glucose level (Male ob/ob mice): 144.2 ± 19.5 mg/dL
Glycated hemoglobin level (%) (Male ob/ob mice): 3.5 ± 0.1%
